US20060024691A1, “Novel pathways in the etiology of cancer” (Buck Institute for Age Research, priority 2004, published 2006)
“Also recorded” adds a separate entry of the source. Where two headings read alike, the source gives them in different places. Peptide text beside a SMILES is read from it. * marks the point of attachment. Cbz = O=C(OCc1ccccc1)*

Key:
[1] = system: ERα Ser-118 (67 kD ERα and 52 kD ERα variant); type: cell-based, human; details: for Ser-118 phosphorylation of ER induced by treatment: MCF-7/T47D cells, charcoal-stripped media, 30 min, menadione 100 μM, estradiol 10 nM, other quinones at equitoxic doses
Protocol: (§1) Human breast cancer cell lines MCF7 and T47D were obtained from the American Type Culture Collection (ATCC). MCF7 cells were maintained in Dulbecco's Modification of Eagle's Medium (Cellgro) supplemented with 10% fetal bovine serum (Cellgro), 1% penicillin/streptomycin (Cellgro) and 10 μg/ml insulin (Sigma). T47D cells were maintained in RPMI (Cellgro) supplemented with 10% fetal bovine serum, 1% penicillin/streptomycin and 10 μg/ml insulin. Treatment conditions for both cell lines involved plating ˜1×10^6 cells in normal media onto 10 cm dishes, attachment and growth for 24 hours followed by a change to estrogen-free culture conditions (phenol red-free DME H-16 supplemented with 10% charcoal stripped serum, 1% penicillin/streptomycin and 10 μg/ml insulin) for an additional 24 hours. Cells were then treated as indicated for 30 minutes before extract preparation. Indicated conditions involved 30 minute pretreatments.
(§2) Following aspiration of the media and one ice cold PBS wash, cells growing on 10 cm dishes were harvested using a cell scraper and 0.7 ml of ice cold cell lyses buffer ([…], 1.5 mM MgCl2, […] KCl, 1 mM DTT, […] NaFl, 5% glycerol, 0.45% NP40 (Igepal, Sigma) and mincomplete protease inhibitors (Roche)). […] For preparation of high-salt nuclear extracts (nucleoplasm), isolated nuclei were resuspended for 20 minutes in ice cold extraction buffer (0.4 M NaCl, 25 mM Tris pH 7.5, 1 mM DTT, 20% glycerol, 10 mM NaFl and min-complete protease inhibitors (Roche)) followed by a 4° C. centrifugation at 16,000×g for 15 minutes.
(§3) Equal amounts of protein from the various extracts were mixed with 2× SDS sample buffer (125 mM Tris pH6.8, 20% glycerol, 2% SDS, 0.28 M 2-mercaptoethanol and0.5% Bromphenol Blue), heated for 5 minutes at 90° C. and electrophoresed on NuPAGE 4-12% Bis-Tris gels (Invitrogen) using NuPAGE MOPS SDS running buffer (Invitrogen) and full range Rainbow recombinant protein molecular weight markers (Amersham Pharmacia). […] Membranes were then blocked for 30 minutes in blocking buffer (150 mM NaCl, 20 mM Tris pH 7.5, 0.3% Tween-20 and 4% Nonfat dry milk powerby weight).

[2] = system: ERα Ser-167 (67 kD ERα and 52 kD ERα variant); type: cell-based, human; details: for block of K3-induced p-Ser-167 ERα formation: MCF7 cells, co-treatment with K3
Protocol: as §1, §2, §3

[3] = system: ERK1/ERK2; experiment: MAPK activation: ERK1/ERK2 phosphorylation, Western blot; type: cell-based, human; details: MCF7 cells; for effect on K3 induced phospho-ERK1/2 formation (MAPK activation): co-treatment with K3
Protocol: as §1
For preparation of high-salt nuclear extracts (nucleoplasm), isolated nuclei were resuspended for 20 minutes in ice cold extraction buffer (0.4 M NaCl, 25 mM Tris pH 7.5, 1 mM DTT, 20% glycerol, 10 mM NaFl and min-complete protease inhibitors (Roche)) followed by a 4° C. centrifugation at 16,000×g for 15 minutes.
Membranes were then blocked for 30 minutes in blocking buffer (150 mM NaCl, 20 mM Tris pH 7.5, 0.3% Tween-20 and 4% Nonfat dry milk powerby weight).

[4] = system: p50 and p65 NFκB subunits; experiment: Immunoblot of nuclear p50 and p65 NFκB subunits in MCF-7 cells; type: cell-based, human; details: MCF-7; MG-132 25 μM, PS-341 5 μM, PDTC 100 μM, PA 50 μM
Protocol: (§4) PS-341 was kindly provided by Millennium Pharmaceuticals Inc. (Cambridge, Mass.). […] For assessment of combined treatment effects on cell viability, 2×10^4 cells (MCF-7, MCF-7/HER2, BT474) grown in 24-well plates were first treated with tamoxifen (dissolved in ethanol) and/or parthenolide (dissolved in DMSO); for the combination treatment pathenolide was added 4 h before addition of tamoxifen. Cell viability was measured 18 h after tamoxifen treatment using the sulforhodamine B (SRB) assay (Skehan, et al. 1990). Briefly, cells fixed with trichloroacetic acid were stained for 30 min with 0.4% SRB dissolved in 1% acetic acid. Unbound dye was removed by four washes with 1% acetic acid, and protein-bound dye was extracted with 10 mM unbuffered Tris base [tris(hydroxymethyl)aminomethane] for determination of optical density at 564 nm.
(§5) Fractionation of control and treated cells into cytoplasmic and nuclear extracts was performed as previously described (Dignam et al., 1983), with minor modification. Cells harvested on ice were washed twice with cold PBS, scraped and resuspended in 1.0 ml hypotonic buffer (20 mM HEPES, pH 7.0; 10 mM KCl; 1 mM MgCl2; 0.1% Triton X-100; 20% glycerol; 0.5 mM DTT) containing a cocktail of protease inhibitors (Mini CompleteTM protease inhibitors, Roche Diagnostics, Mannheim, Germany). The harvested cells were Dounce homogenized on ice, the mixture centrifuged at 3,000 rpm at 4° C. (5 min), and the cytoplasmic fraction separated from the nuclear pellet which was resuspended in elution buffer (20 mM HEPES, pH 7.0; 10 mM KCl; 1 mM MgCl2; 0.42 M NaCl; 0.1% Triton X-100; 20% glycerol; 0.5 mM DTT), supplemented with protease inhibitors. After 20 min at 4° C. the buffered mixture was centrifuged at 14,000 rpm at 4° C. (10 min) to obtain solubilized nuclear extracts which were then stored in aliquots at −80° C. after protein determination (Bradford; BioRad, Hercules, Calif.) and for subsequent NFkB DNA-binding assays.
Antibodies against p50 NFκB, p65 NFκB, IκB, and β-actin proteins were commercially obtained (Santa Cruz Biotechnology, Santa Cruz, Calif.; and Abcam Inc., Cambridge, Mass.). […]; 4% SDS; 20% glycerol; and 10% 2-mercaptoethanol) and resolved by electrophoresis in 4-12% Bis-Tris SDS gradient gels in morpholinepropane sulfonic acid (MOPS) buffer. Separated proteins were transferred onto polyvinylidene difluoride membranes (Millipore Co., Billerica, Mass.), blocked with 5% non-fat milk in PBS containing 0.1% Tween-20, and membranes immunoblotted with the indicated antibodies in blocking solution. […]

[5] = system: NF-κB p50; experiment: NF-κB p50 DNA-binding (TransAM assay); type: cell-based, human; details: ER-positive cells, 10 μM, 30 min
Protocol: (§6) Quantitative p50 and p65 NFκB DNA-binding were also determined using ELISA based Trans-AMTM assays in accordance with the manufacturer's instructions (ActiveMotif; Carlsbad, Calif.). In these commercial kits, a duplexed NFκB oligonucleotide containing the same κB consensus sequence described for the EMSA assay above is attached to the surface of 96-well plates. Activated NFκB in tumor or nuclear extracts that is first bound to the attached oligonucleotide is specifically and quantitatively detected by subsequent incubation with p50 or p65 specific antibody followed by an enzyme (HRP)-linked secondary for colorimetric (OD450 nm absorbance) scoring. Standard curves to establish the linear assay range for Trans-AMTM determinations of p50 and p65 NFκB DNA-binding activities were performed using graded amounts of control (IL-1 treated) HeLa cell nuclear extracts (0.625 to 10 μg/well) and for comparison with a panel of nuclear extracts from six human breast cancer cell lines (MCF-7, T47D, BT474, MCF-7/HER2, SkBr3, MDA-231).

[6] = system: NFκB; experiment: NFκB DNA-binding by EMSA, nuclear extracts of menadione treated MCF-7 cells; type: cell-based, human; details: 30 min pretreatment: MG-132 25 μM, PS-341 5 μM, PDTC 100 μM, PA 50 μM; then menadione 100 μM 30 min
Protocol: as §4, §5
NFκB DNA-binding activity was measured by two different techniques. Analogous to previous tumor extract scoring of Sp1 DNA-binding protein (Quong et al., 2002), total specific NFκB DNA-binding protein was determined by electrophoretic morbility shift assay (EMSA) as follows. A duplexed oligonucleotide probe (Promega, Madison, Wis.) with sense strand containing the decameric κB consensus binding sequence (underlined) 5′-[…]-3′(SEQ ID NO:4) was end-labeled with [γ-P32]ATP (PerkinElmer, Boston, Mass.) using T4 polynucleotide kinase (Promega, Madison, Wis.) and purified with G-50 Sephadex Bio-Spin columns (BioRad, Hercules, Calif.). […]

[7] = system: NF-κB p65; experiment: NF-κB p65 DNA-binding (TransAM assay); type: cell-based, human; details: ER-positive cells, 10 μM, 30 min
Protocol: as §6

[8] = system: MCF-7 cells; details: 5-7 days, concentrations approaching 1000 nM; cited from earlier work
[9] = system: BT474 cells; details: 5-7 days, concentrations approaching 1000 nM; cited from earlier work
[10] = system: MCF-7/HER2 cells; details: 5-7 days, concentrations approaching 1000 nM; cited from earlier work

## C[C@]12CC[C@@H]3c4ccc(O)c(O)c4CC[C@H]3[C@@H]1CCC2=O [4-OHE, 4-hydroxyestrone]
[1]
  Ser-118 phosphorylation of ER induced by treatment: induced Ser-118 and Ser-167 phosphorylation of the 52 kD ERα nuclear variant
[2]; MCF7 nuclear extracts, 30 min
  Ser-167 phosphorylation of ERα induced by treatment: induced Ser-118 and Ser-167 phosphorylation of the 52 kD ERα nuclear variant
[3]; 30 minutes
  ERK1/ERK2 phosphorylation induced by treatment: phosphorylating ERK1/2

## COC1=C(OC)C(=O)c2ccccc2C1=O [DMNQ]
[1]
  Ser-118 phosphorylation of ER induced by treatment: no Ser˜118 phosphorylation

## CC(C)C[C@@H](C=O)NC(=O)[C@H](CC(C)C)NC(=O)[C@H](CC(C)C)NC(=O)OCc1ccccc1 [MG-132] (Cbz-Leu-Leu-Leu-aldehyde)
[4]
  nuclear p50 and p65 NFκB subunit content, inhibitor pretreatment before menadione: marked reductions
[5]
  decrease in the DNA-binding of p50 subunit: 60%
[6]
  inhibition of menadione-induced NFκB DNA-binding / activation: complete inhibition; also recorded: completely inhibited
[7]
  decrease in the DNA-binding of p65 subunit: 60%

## CC(=O)N[C@@H](CS)C(=O)O [NAC, N-acetyl cysteine]
[2]
  block of K3-induced p-Ser-167 ERα formation: blocked
[2]; listed as N-acetyl cysteine
  block of K3-induced p-Ser-167 ERα formation: effectively block
[3]
  effect on K3 induced phospho-ERK1/2 formation (MAPK activation): blocked; also recorded: completely block
[3]; listed as N-acetyl cysteine
  effect on K3 induced phospho-ERK1/2 formation (MAPK activation): without inhibiting MAPK activity

## S=C(S)N1CCCC1 [PDTC, pyrrolidine dithiocarbamate]
[4]
  nuclear p50 and p65 NFκB subunit content, inhibitor pretreatment before menadione: marked reductions
[6]
  inhibition of menadione-induced NFκB DNA-binding / activation: complete inhibition

## CC(C)C[C@H](NC(=O)[C@H](Cc1ccccc1)NC(=O)c1cnccn1)B(O)O [PS-341]
[4]
  nuclear p50 and p65 NFκB subunit content, inhibitor pretreatment before menadione: marked reductions
[6]
  inhibition of menadione-induced NFκB DNA-binding / activation: complete inhibition; also recorded: completely inhibited

## C[S+]([O-])c1ccc(-c2nc(-c3ccncc3)c(-c3ccc(F)cc3)[nH]2)cc1 (stereo not drawn) [SB203580]
[2]
  block of K3-induced p-Ser-167 ERα formation: no affect

## N#CC(=C(/N)Sc1ccccc1N)/C(C#N)=C(\N)Sc1ccccc1N [U0126]
[3]
  effect on K3 induced phospho-ERK1/2 formation (MAPK activation): only minimal activation detectable

## O=c1oc2ccccc2c(O)c1Cc1c(O)c2ccccc2oc1=O [dicumarol]
[1]; MCF7 cells, dicumarol added concurrently with K3
  inhibition of K3-induced p-Ser-118 ERα: at least 75%
[2]
  block of K3-induced p-Ser-167 ERα formation: virtually complete inhibition; also recorded: effectively block

## O=C1C=CC(=O)C=C1 [p-benzoquinone]
[1]
  Ser-118 phosphorylation of ER induced by treatment: no Ser˜118 phosphorylation

## CC/C(=C(\c1ccccc1)c1ccc(OCCN(C)C)cc1)c1ccccc1 [tamoxifen, [Z]-1-[p-dimethylaminoethoxyphenyl]-1,2-diphenyl-1 butene]
[8]
  reduction in viable cell number: ~50%
[9]
  cellular reductions (viable cell number): ~25%
[10]
  cellular reductions (viable cell number): ~25%
